Test results published in the NIST ThermoML archive (doi:10.1021/je060390q).
± gives the expanded uncertainty stated by the source.

How the values were obtained:
[1] = Maximal bubble pressure
[2] = xn = mol fraction of the nth substance listed; settings: Maximal bubble pressure

Cc1ccccc1C [1,2-dimethylbenzene]
[1]
Settings | surface tension liquid-gas [mN/m]
303.15 K | 28.98 ± 0.63
308.15 K | 28.43 ± 0.62
313.15 K | 27.88 ± 0.61
318.15 K | 27.33 ± 0.59
323.15 K | 26.78 ± 0.58
333.15 K | 25.68 ± 0.56
343.15 K | 24.58 ± 0.54

Cc1ccccc1C [1,2-dimethylbenzene] + CC(=O)O
surface tension liquid-gas [mN/m], [2]
Settings | x2 = 0 | x2 = 0.1001 | x2 = 0.2001 | x2 = 0.3002 | x2 = 0.4 | x2 = 0.5 | x2 = 0.6213 | x2 = 0.7001 | x2 = 0.8 | x2 = 0.9
303.15 K | 28.98 ± 0.63 | 28.81 ± 0.62 | 28.56 ± 0.62 | 28.32 ± 0.61 | 28.07 ± 0.6 | 27.81 ± 0.6 | 27.5 ± 0.59 | 27.29 ± 0.58 | 27.03 ± 0.58 | 26.74 ± 0.57
308.15 K | 28.43 ± 0.62 | 28.26 ± 0.61 | 28.03 ± 0.61 | 27.78 ± 0.6 | 27.54 ± 0.59 | 27.29 ± 0.59 | 26.98 ± 0.58 | 26.78 ± 0.57 | 26.5 ± 0.57 | 26.24 ± 0.56
313.15 K | 27.88 ± 0.61 | 27.71 ± 0.6 | 27.49 ± 0.59 | 27.25 ± 0.59 | 27.01 ± 0.58 | 26.77 ± 0.58 | 26.47 ± 0.57 | 26.26 ± 0.56 | 25.99 ± 0.56 | 25.74 ± 0.55
318.15 K | 27.33 ± 0.59 | 27.17 ± 0.59 | 26.94 ± 0.58 | 26.7 ± 0.58 | 26.47 ± 0.57 | 26.23 ± 0.56 | 25.94 ± 0.56 | 25.74 ± 0.55 | 25.48 ± 0.55 | 25.22 ± 0.54
323.15 K | 26.78 ± 0.58 | 26.62 ± 0.58 | 26.4 ± 0.57 | 26.17 ± 0.57 | 25.95 ± 0.56 | 25.71 ± 0.55 | 25.42 ± 0.55 | 25.22 ± 0.54 | 24.97 ± 0.54 | 24.72 ± 0.53
333.15 K | 25.68 ± 0.56 | 25.54 ± 0.55 | 25.32 ± 0.55 | 25.11 ± 0.54 | 24.89 ± 0.54 | 24.67 ± 0.53 | 24.4 ± 0.52 | 24.2 ± 0.52 | 23.97 ± 0.51 | 23.73 ± 0.51
343.15 K | 24.58 ± 0.54 | 24.45 ± 0.53 | 24.24 ± 0.53 | 24.04 ± 0.52 | 23.84 ± 0.52 | 23.63 ± 0.51 | 23.37 ± 0.5 | 23.18 ± 0.5 | 22.95 ± 0.49 | 22.73 ± 0.49

Cc1cccc(C)c1 [1,3-dimethylbenzene]
[1]
Settings | surface tension liquid-gas [mN/m]
303.15 K | 27.58 ± 0.6
308.15 K | 27.04 ± 0.59
313.15 K | 26.49 ± 0.58
318.15 K | 25.94 ± 0.56
323.15 K | 25.38 ± 0.55
333.15 K | 24.27 ± 0.53
343.15 K | 23.18 ± 0.51

Cc1cccc(C)c1 [1,3-dimethylbenzene] + CC(=O)O
surface tension liquid-gas [mN/m], [2]
Settings | x2 = 0 | x2 = 0.1001 | x2 = 0.2001 | x2 = 0.3 | x2 = 0.4188 | x2 = 0.4999 | x2 = 0.5999 | x2 = 0.7018 | x2 = 0.7999 | x2 = 0.9
303.15 K | 27.58 ± 0.6 | 27.51 ± 0.6 | 27.4 ± 0.59 | 27.3 ± 0.59 | 27.17 ± 0.58 | 27.07 ± 0.58 | 26.95 ± 0.58 | 26.87 ± 0.57 | 26.71 ± 0.57 | 26.56 ± 0.57
308.15 K | 27.04 ± 0.59 | 26.97 ± 0.58 | 26.87 ± 0.58 | 26.77 ± 0.58 | 26.63 ± 0.57 | 26.55 ± 0.57 | 26.47 ± 0.57 | 26.36 ± 0.56 | 26.19 ± 0.56 | 26.06 ± 0.56
313.15 K | 26.49 ± 0.58 | 26.42 ± 0.57 | 26.33 ± 0.57 | 26.24 ± 0.57 | 26.1 ± 0.56 | 26.03 ± 0.56 | 25.95 ± 0.56 | 25.84 ± 0.55 | 25.68 ± 0.55 | 25.56 ± 0.55
318.15 K | 25.94 ± 0.56 | 25.88 ± 0.56 | 25.78 ± 0.56 | 25.69 ± 0.56 | 25.58 ± 0.55 | 25.5 ± 0.55 | 25.42 ± 0.55 | 25.32 ± 0.54 | 25.17 ± 0.54 | 25.04 ± 0.54
323.15 K | 25.38 ± 0.55 | 25.32 ± 0.55 | 25.24 ± 0.55 | 25.15 ± 0.54 | 25.04 ± 0.54 | 24.98 ± 0.54 | 24.9 ± 0.54 | 24.76 ± 0.53 | 24.65 ± 0.53 | 24.55 ± 0.53
333.15 K | 24.27 ± 0.53 | 24.23 ± 0.53 | 24.16 ± 0.52 | 24.08 ± 0.52 | 23.98 ± 0.52 | 23.92 ± 0.52 | 23.85 ± 0.51 | 23.74 ± 0.51 | 23.65 ± 0.51 | 23.55 ± 0.51
343.15 K | 23.18 ± 0.51 | 23.15 ± 0.51 | 23.08 ± 0.5 | 23.02 ± 0.5 | 22.93 ± 0.5 | 22.88 ± 0.49 | 22.82 ± 0.49 | 22.72 ± 0.49 | 22.63 ± 0.49 | 22.55 ± 0.48

CC(=O)O [acetic acid]
[1]
Settings | surface tension liquid-gas [mN/m]
303.15 K | 26.4 ± 0.56
308.15 K | 25.91 ± 0.55
313.15 K | 25.41 ± 0.54
318.15 K | 24.91 ± 0.53
323.15 K | 24.42 ± 0.52
333.15 K | 23.44 ± 0.5
343.15 K | 22.45 ± 0.48

CC(=O)O [acetic acid] + Cc1cccc(C)c1
[2], x1 = 1
Settings | surface tension liquid-gas [mN/m]
303.15 K | 26.4 ± 0.56
308.15 K | 25.91 ± 0.55
313.15 K | 25.41 ± 0.54
318.15 K | 24.91 ± 0.53
323.15 K | 24.42 ± 0.52
333.15 K | 23.44 ± 0.5
343.15 K | 22.45 ± 0.48

CC(=O)O [acetic acid] + Cc1ccccc1C
[2], x1 = 1
Settings | surface tension liquid-gas [mN/m]
303.15 K | 26.4 ± 0.56
308.15 K | 25.91 ± 0.55
313.15 K | 25.41 ± 0.54
318.15 K | 24.91 ± 0.53
323.15 K | 24.42 ± 0.52
333.15 K | 23.44 ± 0.5
343.15 K | 22.45 ± 0.48
